One series relates to protein kinase CK2. The settings on record: cited from earlier work.
Details of series [1]: method as in PMID 20734498, PMID 22632480. The settings on record: ab initio, calculated previously; cited from earlier work.
On the set-up of series [2]: method as in PMID 20734498, PMID 22632480. Particulars: cited from earlier work; for Cw (aqueous solubility): experimental.
Details of series [3]: method as in PMID 20734498, PMID 22632480. Particulars: experimental, aqueous medium; cited from earlier work.
The target in a further series is T1, human CK2α (Homo sapiens, UniProt P68400).
T1 construct: CK2α was from KinaseDetect Aps; purchased KinaseDetect Aps
T1 sequence (P68400 whole entry): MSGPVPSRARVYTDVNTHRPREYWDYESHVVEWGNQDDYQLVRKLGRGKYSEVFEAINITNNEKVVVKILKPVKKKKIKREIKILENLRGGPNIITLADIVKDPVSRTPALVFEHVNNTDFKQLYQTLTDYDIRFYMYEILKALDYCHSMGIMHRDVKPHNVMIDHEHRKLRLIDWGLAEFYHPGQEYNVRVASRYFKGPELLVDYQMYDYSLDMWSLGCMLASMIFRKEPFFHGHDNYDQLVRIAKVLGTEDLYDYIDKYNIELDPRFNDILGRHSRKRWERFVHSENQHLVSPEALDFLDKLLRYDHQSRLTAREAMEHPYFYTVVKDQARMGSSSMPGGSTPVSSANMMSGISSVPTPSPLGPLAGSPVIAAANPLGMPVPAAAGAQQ
In words: CK2α activity, P81 filter isotopic assay (inhibition, IC50). The series is classed as biochemical. The protocol: CK2α activity was monitored using the P81 filter isotopic assay. The reaction mixture contained 20 mM Tris-HCl, pH 7.5, 20 mM MgCl2, 20 µM DTT, 20 µM peptide substrate, 0.5 mM β-glycerol, 0.1 mM EGTA, 10 µM ATP (200–300 cpm/pmol) and CK2α (0.4 µg/µl). The reaction was initiated with enzyme in a total volume of 50 µl, and incubated at 30°C for 20 min. 10 µl of a reaction mixture was spotted onto a P81 filter. The filter papers were washed 3× with 0.6% phosphoric acid, once with 95% ethanol, then counted in a scintillation counter (Canberra-Packard).
ATP, and Cmax and Cmin are the asymptotic values.

Details of series [4]: method as in PMID 20734498, PMID 22632480. Particulars: ab initio, calculated previously; cited from earlier work. This is another data set of the same source.
Setting [5] is: acidic solution, compared with neutral pH.
[6] abbreviates: 10 µM ATP, 20 µM peptide substrate, pH 7.5, 30°C, 20 min.

The text below walks through data of publication PMC3498355, “Isomeric Mono-, Di-, and Tri-Bromobenzo-1H-Triazoles as Inhibitors of Human Protein Kinase CK2α” (PLoS ONE, 2012).

Where two headings read alike, the source gives them in different places. Where only a bound is given, the exact number is not on record here.

In the case of `Clc1c(Cl)c(Cl)c2[nH]nnc2c1Cl` [4,5,6,7-tetrachloro-benzotriazole], the “activity against CK2 (in words)” value in the series on protein kinase CK2 is “moderate activity”.
For `Cc1c(C)c(C)c2[nH]nnc2c1C` [4,5,6,7-tetramethyl-benzotriazole], the “activity against CK2 (in words)” value in the series with protein kinase CK2 is recorded as “low, but detectable, activity”.
The term IC50 denotes the concentration needed to halve the response being measured. Low values mean greater potency in that assay, high ones weaker potency in that assay. For `Brc1cc2[nH]nnc2c(Br)c1Br` [4,5,6-Br3Bt], the “ΔGsolv (free energy of solvation of the anionic form)” value in series [1] was -40.9 kcal/mol. Besides, the entries for the “solubility (in words)” value in series [2] (setting [5]) and in series [2] (neutral pH) were “visibly higher” and “as low as for TBBt”, respectively. In addition, the “Cw (aqueous solubility)” value in series [2] was 62.3 µM. Besides, in series [3], the “pKa (triazole proton dissociation)” value is reported as 5.91. The compound further registered an IC50 at human CK2α (setting [6]) of 0.38 ± 0.02 µM. The “ΔGdiss (free energy of proton dissociation)” value in series [4] is 52.3 kcal/mol.
Take `Brc1cc(Br)c2[nH]nnc2c1Br` [4,5,7-Br3Bt]: in series [1], the “ΔGsolv (free energy of solvation of the anionic form)” value is -41.9 kcal/mol. Moreover, the “Cw (aqueous solubility)” value in series [2] is 1040 µM. The “pKa (triazole proton dissociation)” value in series [3] is 5.38. For the same compound, at human CK2α (setting [6]), the half-inhibitory concentration (IC50) stood at 5.8 ± 0.9 µM. For the same compound, the “ΔGdiss (free energy of proton dissociation)” value in series [4] is 52.2 kcal/mol.
Regarding `Brc1ccc2[nH]nnc2c1Br` [4,5-Br2Bt], the “ΔGsolv (free energy of solvation of the anionic form)” value in series [1] is -46.8 kcal/mol. In addition, the “Cw (aqueous solubility)” value in series [2] was 499 µM. Besides, in series [3], the “pKa (triazole proton dissociation)” value was 6.49. Moreover, on human CK2α (setting [6]), the IC50 was determined as 10.6 ± 0.9 µM. In addition, the “ΔGdiss (free energy of proton dissociation)” value in series [4] is 54.3 kcal/mol.
Turning to `Brc1cc(Br)c2nn[nH]c2c1` [4,6-Br2Bt], the “ΔGsolv (free energy of solvation of the anionic form)” value in series [1] is -45.5 kcal/mol. For the same compound, in series [2], the “Cw (aqueous solubility)” value was 234 µM. The “pKa (triazole proton dissociation)” value in series [3] was 6.38. At human CK2α (setting [6]), this compound showed a 50% inhibitory concentration (IC50) of 10 ± 2.2 µM. Further, the “ΔGdiss (free energy of proton dissociation)” value in series [4] was 54.2 kcal/mol.
On to `Brc1ccc(Br)c2[nH]nnc12` [4,7-Br2Bt], for which the “ΔGsolv (free energy of solvation of the anionic form)” value in series [1] is -48.0 kcal/mol. Besides, the “Cw (aqueous solubility)” value in series [2] was 1980 µM. Further, the “pKa (triazole proton dissociation)” value in series [3] is 5.84. Further, 72 ± 11 µM corresponded to half-maximal inhibition on human CK2α (setting [6]) (IC50). Moreover, the “ΔGdiss (free energy of proton dissociation)” value in series [4] is 53.4 kcal/mol.
Regarding `Brc1cccc2[nH]nnc12` [4-BrBt], the “ΔGsolv (free energy of solvation of the anionic form)” value in series [1] was -53.3 kcal/mol. Further, the “Cw (aqueous solubility)” value in series [2] was 3870 µM. Further, the “pKa (triazole proton dissociation)” value in series [3] is given as 7.08. Also, on human CK2α (setting [6]), the IC50 turned out to be 119 ± 10 µM. Further, the “ΔGdiss (free energy of proton dissociation)” value in series [4] was 56.7 kcal/mol.
As to `Brc1cc2nn[nH]c2cc1Br` [5,6-Br2Bt], the “ΔGsolv (free energy of solvation of the anionic form)” value in series [1] was -44.4 kcal/mol. In addition, the “solubility (in words)” value in series [2] (setting [5]) is reported as “visibly higher”; in series [2] (neutral pH), “as low as for TBBt”. The “Cw (aqueous solubility)” value in series [2] was 231 µM. Further, the “pKa (triazole proton dissociation)” value in series [3] is on record as 6.93. For the same compound, on human CK2α (setting [6]), it took 0.56 ± 0.02 µM to reach half-maximal inhibition (IC50). Further, in series [4], the “ΔGdiss (free energy of proton dissociation)” value is on record as 55.8 kcal/mol.
Take `Brc1ccc2nn[nH]c2c1` [5-BrBt]: the “ΔGsolv (free energy of solvation of the anionic form)” value in series [1] is -50.7 kcal/mol. In addition, the “Cw (aqueous solubility)” value in series [2] was 2770 µM. Further, the “pKa (triazole proton dissociation)” value in series [3] is on record as 7.55. The compound also yielded an IC50 on human CK2α (setting [6]) of 26 ± 3 µM. In addition, the “ΔGdiss (free energy of proton dissociation)” value in series [4] was 58.1 kcal/mol.
Turning to `c1ccc2[nH]nnc2c1` [Bt, benzotriazole, reference compound], the “ΔGsolv (free energy of solvation of the anionic form)” value in series [1] is -59.9 kcal/mol. Also, the “Cw (aqueous solubility)” value in series [2] was 196000 µM. The “pKa (triazole proton dissociation)” value in series [3] is reported as 8.56. Also, the “inhibitory activity against CK2α (in words)” value at human CK2α is “totally inactive”. Moreover, the concentration for half-maximal inhibition (IC50) at human CK2α (setting [6]) and on human CK2α (as stated in legend of Figure 5) was > 2000 µM in each case. The “ΔGdiss (free energy of proton dissociation)” value in series [4] is 59.5 kcal/mol.
With `Brc1c(Br)c(Br)c2[nH]nnc2c1Br` [TBBt, 4,5,6,7-tetrabromobenzotriazole, reference compound], the “ΔGsolv (free energy of solvation of the anionic form)” value in series [1] is -38.0 kcal/mol. Further, the “Cw (aqueous solubility)” value in series [2] is 218 µM. Further, in series [2] (neutral form of the ligand), the “solubility (in words)” value is “very poorly soluble”. For the same compound, the “ΔGdiss (free energy of proton dissociation)” value in series [4] is 49.7 kcal/mol.
Turning to `Brc1c(Br)c(Br)c2[nH]cnc2c1Br` [TBBz, 4,5,6,7-tetrabromobenzimidazole], on protein kinase CK2, the Ki entry was “low µM and sub-µM range”; the “activity relative to TBBt (fold less active)” value is listed as 4 fold.
